COc1ccc(CN2CCNCC2)c(OC)c1OC.Cl.Cl
solubility (mole fraction)
Conditions | 278.15 K | 283.15 K | 288.15 K | 293.15 K | 298.15 K | 303.15 K | 308.15 K | 313.15 K | 318.15 K | 323.15 K
in 1,4-dioxane | – | – | 5.08e-05 | 6.07e-05 | 7.16e-05 | 8.25e-05 | 9.48e-05 | 0.000109 | 0.000124 | 0.000141
in 2-butanone | 6.02e-06 | 6.56e-06 | 7.1e-06 | 7.72e-06 | 8.35e-06 | 9.05e-06 | 9.85e-06 | 1.06e-05 | 1.15e-05 | 1.24e-05
in DMF | 0.00053 | 0.000566 | 0.000609 | 0.000658 | 0.000705 | 0.000754 | 0.000803 | 0.000857 | 0.000913 | 0.000975
in acetone | 6.23e-06 | 6.82e-06 | 7.47e-06 | 8.16e-06 | 8.85e-06 | 9.62e-06 | 1.03e-05 | 1.11e-05 | 1.2e-05 | 1.3e-05
in acetonitrile | 1.23e-05 | 1.37e-05 | 1.49e-05 | 1.63e-05 | 1.77e-05 | 1.9e-05 | 2.04e-05 | 2.19e-05 | 2.38e-05 | 2.58e-05
in ethanol | 0.000583 | 0.000652 | 0.000727 | 0.000805 | 0.00089 | 0.000987 | 0.00109 | 0.0012 | 0.00132 | 0.00145
in ethyl acetate | 0.00201 | 0.00209 | 0.00217 | 0.00226 | 0.00234 | 0.00244 | 0.00254 | 0.00264 | 0.00275 | 0.00286
in isopropanol | 7.61e-05 | 9.15e-05 | 0.00011 | 0.000133 | 0.000157 | 0.000184 | 0.000215 | 0.000247 | 0.000287 | 0.000333
in methanol | 0.00353 | 0.00402 | 0.00458 | 0.00524 | 0.00603 | 0.00682 | 0.00777 | 0.00882 | 0.00993 | 0.0111
in n-butanol | 0.000131 | 0.000153 | 0.000177 | 0.000201 | 0.000232 | 0.000263 | 0.000297 | 0.000336 | 0.000383 | 0.000432
in n-propanol | 0.000193 | 0.000217 | 0.000246 | 0.000281 | 0.000322 | 0.000366 | 0.000413 | 0.000464 | 0.000521 | 0.000581
in toluene | 7.02e-07 | 8.19e-07 | 9.58e-07 | 1.12e-06 | 1.33e-06 | 1.57e-06 | 1.83e-06 | 2.12e-06 | 2.43e-06 | 2.76e-06

Reference: BigSolDB 2.1
